A short description of series [1]: RF-acoustic signal characterization in tube phantom (433 MHz UHF-RF pulse). The following applies: salts 10 wt %, NaOH 4 wt %; 1 mm tubes.
Protocol: To determine the optimal composition of salt solutions for UHF-RF-acoustic contrast agents, five different salts were chosen, NaCl(aq), KI(aq), KCl(aq), MgCl2(aq), and CaCl2(aq) based on their ionic conductivity, solubility in water, and biocompatibility. NaOH(aq) was selected as a control because of its high ionic conductivity but low biocompatibility. […] Their UHF-RF-acoustic signals were measured using a prototype RF-acoustic tomography system with a nanosecond UHF-RF pulse at 433 MHz since this frequency is within the medical device radio-communications service band (MedRadio) (FIGS. 1B-1D). […] The generated RF-acoustic signals were collected by an ultrasound-linear-array transducer with a central frequency at 3.5 MHz that provides 1.2 mm imaging resolution on the transverse plane (FIGS. 1E-1F).
For comparison, a tube was included with only physiological saline (0.9 wt % of NaCl) to mimic RF-acoustic background of tissue. […]
A prototype RF-acoustic tomography imaging system (with main parts from Endra) was used to measure the RF-acoustic signal from the phantom and the mice. […] At each angle, 4095 pulses were recorded and averaged to improve the signal-to-noise ratio. […] The average energy density of a pulse at the target site was measured to be 1 mJ/cm^2, which is within the safety limit of tissue exposure. […] Acoustic signals were recorded by an ultrasound imaging system. […]
For series [2] the following is noted: unit not given; cited from earlier work.

In the case of `[Cl-].[Na+]` [NaCl, sodium chloride], in series [1], the “RF-acoustic signal of electrolyte solutions (comparison)” value is reported as “weaker signals than KCl”.

For the compound `[Na+].[OH-]` [NaOH(aq), sodium hydroxide, reference compound], in series [1], the “RF-acoustic signal of electrolyte solutions (comparison)” value is on record as “strongest RF-acoustic signal”.

As for `FC1(F)C(F)(F)C(F)(F)C2(F)C(F)(F)C(F)(F)C(F)(F)C(F)(F)C2(F)C1(F)F` (centres unmarked) [Perfluorodecalin, perfluorodecalin], in series [2], the Water solubility was 9.90 × 10^−9. Take `FC(F)(F)C(F)(F)C(F)(F)C(F)(F)C(F)(F)C(F)(F)F` [Perfluorohexane, perfluorohexane]: the Water solubility in series [2] is reported as 2.70 × 10^−7.

For the compound `FC(F)(F)C(F)(F)C(F)(F)C(F)(F)C(F)(F)F` [Perfluoropentane, perfluoropentane], the Water solubility in series [2] was 4.00 × 10^−6.

Source of the values: patent US20200323999A1 (The Board of Trustees of the Leland Stanford Junior …, priority 2019, published 2020).
